Patent publication US20110230481A2, “DERIVATIVES OF TETRABROMOBENZIMIDAZOLE, A PROCESS FOR THE PREPARATION THEREOF, A PHARMACEUTICAL COMPOSITION COMPRISING THE SAME, A METHOD OF USING THE SAME, A METHOD FOR MODULATING OR REGULATING SERINE/THREONINE KINASES, AND SERINE/THREONINE KINASES MODULATING AGENT” (SELVITA S.A., priority 2009, published 2011)

Key:
Assay in all cases: KINOMEscan Max
Type in all cases: binding
[1] = biological target: T1, SNRK (Homo sapiens, UniProt Q9NRH2)
T1 construct: DNA tag (qPCR read-out)
T1 sequence (Q9NRH2 whole entry): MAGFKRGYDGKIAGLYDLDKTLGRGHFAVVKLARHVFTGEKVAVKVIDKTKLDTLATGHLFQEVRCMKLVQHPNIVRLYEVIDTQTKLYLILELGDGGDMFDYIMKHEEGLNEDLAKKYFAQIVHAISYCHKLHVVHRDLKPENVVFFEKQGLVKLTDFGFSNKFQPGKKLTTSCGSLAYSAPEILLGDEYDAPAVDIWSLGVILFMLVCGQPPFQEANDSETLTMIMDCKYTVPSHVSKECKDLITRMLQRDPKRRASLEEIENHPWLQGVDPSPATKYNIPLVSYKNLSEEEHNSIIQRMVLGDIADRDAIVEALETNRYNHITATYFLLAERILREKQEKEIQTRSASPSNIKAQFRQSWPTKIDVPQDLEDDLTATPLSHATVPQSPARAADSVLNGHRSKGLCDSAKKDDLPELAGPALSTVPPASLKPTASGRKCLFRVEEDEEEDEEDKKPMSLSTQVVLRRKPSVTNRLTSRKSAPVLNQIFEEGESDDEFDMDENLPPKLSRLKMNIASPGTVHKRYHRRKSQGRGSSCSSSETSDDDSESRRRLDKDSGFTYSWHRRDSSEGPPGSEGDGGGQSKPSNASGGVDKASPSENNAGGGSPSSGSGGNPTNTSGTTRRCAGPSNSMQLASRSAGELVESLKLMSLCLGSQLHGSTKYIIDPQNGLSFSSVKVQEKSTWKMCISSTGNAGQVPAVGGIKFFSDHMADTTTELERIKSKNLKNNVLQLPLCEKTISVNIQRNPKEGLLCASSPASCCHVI
Summary of the method: (§1)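 Competition binding assay: test compound competes with an immobilized, active-site directed ligand for DNA-tagged kinase. Kinase captured on the ligand is quantified by qPCR of the DNA tag.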

[2] = biological target: T2, INSR (Homo sapiens, UniProt P06213)
T2 construct: DNA tag (qPCR read-out)
T2 sequence (P06213 28-1382): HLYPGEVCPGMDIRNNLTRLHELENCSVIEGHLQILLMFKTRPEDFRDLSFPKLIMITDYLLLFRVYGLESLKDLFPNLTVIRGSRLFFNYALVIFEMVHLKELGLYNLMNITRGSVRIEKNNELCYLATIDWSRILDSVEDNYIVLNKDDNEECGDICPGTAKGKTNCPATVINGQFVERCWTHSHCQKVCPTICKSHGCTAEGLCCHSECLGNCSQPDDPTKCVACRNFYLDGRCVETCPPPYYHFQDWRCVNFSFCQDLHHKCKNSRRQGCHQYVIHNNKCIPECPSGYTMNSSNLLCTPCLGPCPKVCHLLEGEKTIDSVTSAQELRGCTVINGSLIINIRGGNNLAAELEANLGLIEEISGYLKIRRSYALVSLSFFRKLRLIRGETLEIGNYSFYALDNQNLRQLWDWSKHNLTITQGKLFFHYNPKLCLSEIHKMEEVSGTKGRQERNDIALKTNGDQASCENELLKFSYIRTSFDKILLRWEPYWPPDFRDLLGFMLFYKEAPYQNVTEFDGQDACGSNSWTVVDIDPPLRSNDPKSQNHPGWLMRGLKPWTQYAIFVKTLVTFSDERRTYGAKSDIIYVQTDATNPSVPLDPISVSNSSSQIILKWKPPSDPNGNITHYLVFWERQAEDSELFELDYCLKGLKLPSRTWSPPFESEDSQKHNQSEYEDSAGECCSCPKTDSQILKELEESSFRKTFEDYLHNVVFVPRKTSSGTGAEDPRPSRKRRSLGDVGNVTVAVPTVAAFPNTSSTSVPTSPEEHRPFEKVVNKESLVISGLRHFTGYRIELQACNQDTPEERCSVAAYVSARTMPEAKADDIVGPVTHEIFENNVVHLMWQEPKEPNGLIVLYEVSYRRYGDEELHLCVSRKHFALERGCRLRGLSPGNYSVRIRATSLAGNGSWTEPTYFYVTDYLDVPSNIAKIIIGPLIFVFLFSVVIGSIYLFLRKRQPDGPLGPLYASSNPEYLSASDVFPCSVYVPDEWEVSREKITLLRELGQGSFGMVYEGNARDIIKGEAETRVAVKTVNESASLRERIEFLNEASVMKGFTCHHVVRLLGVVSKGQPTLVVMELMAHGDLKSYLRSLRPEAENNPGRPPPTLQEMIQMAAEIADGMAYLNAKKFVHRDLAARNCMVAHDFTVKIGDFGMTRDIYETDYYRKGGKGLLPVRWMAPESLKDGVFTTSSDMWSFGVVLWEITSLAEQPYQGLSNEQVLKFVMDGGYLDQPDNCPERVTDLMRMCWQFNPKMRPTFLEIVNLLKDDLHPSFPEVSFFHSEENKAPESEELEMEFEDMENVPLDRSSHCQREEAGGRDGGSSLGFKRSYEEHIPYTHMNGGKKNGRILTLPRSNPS
Summary of the method: as §1

[3] = biological target: T3, TLK2 (Homo sapiens, UniProt Q86UE8)
T3 construct: purchased Ambit Kinomescan (contract screening service)
Summary of the method: as §1

[4] = biological target: T4, RET (Homo sapiens, UniProt P07949)
T4 construct: DNA tag (qPCR read-out)
Summary of the method: as §1

[5] = biological target: T5, RPS6KA4(Kin.Dom.1-N-terminal) (Homo sapiens, UniProt O75676)
T5 construct: RPS6KA4(Kin.Dom.1-N-terminal); DNA tag (qPCR read-out)
Summary of the method: as §1

[6] = biological target: T6, DDR2 (Homo sapiens, UniProt Q16832)
T6 construct: purchased Ambit (KINOMEscan Max panel service)
Summary of the method: as §1

[7] = biological target: T7, PIK3CA(H1047Y) (Homo sapiens, UniProt P42336, H1047Y)
T7 construct: DNA tag (qPCR read-out)
Summary of the method: as §1

[8] = biological target: S6K1 (Homo sapiens, UniProt P23443)
Summary of the method: as §1

[9] = biological target: AURKA (Homo sapiens, UniProt O14965)
Summary of the method: as §1

[10] = biological target: p38-alpha (Homo sapiens, UniProt Q16539); details: 1 μM
Chain of p38-alpha (Q16539 whole entry): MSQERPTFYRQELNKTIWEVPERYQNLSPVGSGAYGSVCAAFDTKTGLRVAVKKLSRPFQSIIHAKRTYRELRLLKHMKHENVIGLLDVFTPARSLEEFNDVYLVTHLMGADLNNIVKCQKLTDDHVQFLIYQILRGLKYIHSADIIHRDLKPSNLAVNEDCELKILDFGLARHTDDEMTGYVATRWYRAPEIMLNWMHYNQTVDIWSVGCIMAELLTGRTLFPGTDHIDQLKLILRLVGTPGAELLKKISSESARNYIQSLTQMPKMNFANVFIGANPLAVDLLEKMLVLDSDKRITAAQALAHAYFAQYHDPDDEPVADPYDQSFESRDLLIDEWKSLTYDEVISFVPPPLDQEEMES
Summary of the method: as §1

[11] = biological target: T8, SRPK1 (Homo sapiens, UniProt Q96SB4)
T8 construct: purchased Ambit (KINOMEscan Max service)
Summary of the method: as §1

[12] = biological target: AURKB (Homo sapiens, UniProt Q96GD4)
Summary of the method: as §1

[13] = biological target: T9, LOK (Homo sapiens, UniProt O94804); details: 1 μM
T9 construct: purchased Ambit Kinomescan (contract panel)
Summary of the method: as §1

[14] = biological target: p38-beta (Homo sapiens, UniProt Q15759)
Summary of the method: as §1

[15] = biological target: T10, MYLK (Homo sapiens, UniProt Q15746)
T10 construct: purchased Ambit (KINOMEscan Max service)
Summary of the method: as §1

[16] = biological target: T11, CAMK1G (Homo sapiens, UniProt Q96NX5)
T11 construct: DNA tag (qPCR label); purchased Ambit Kinomescan (contract screening)
Summary of the method: as §1

[17] = biological target: PFTAIRE2 (Homo sapiens, UniProt Q96Q40)
Summary of the method: as §1

[18] = biological target: T12, HIPK3 (Homo sapiens, UniProt Q9H422)
T12 construct: DNA tag (qPCR read-out); purchased Ambit Kinomescan
Summary of the method: as §1

[19] = biological target: T13, HIPK4 (Homo sapiens, UniProt Q8NE63)
T13 construct: DNA tag (qPCR read-out)
Summary of the method: as §1

[20] = biological target: ERK8 (Homo sapiens, UniProt Q8TD08)
Summary of the method: as §1

[21] = biological target: T14, ERBB2 (Homo sapiens, UniProt P04626)
T14 construct: purchased Ambit Kinomescan (contract panel, KINOMEscan Max)
T14 sequence (P04626 23-1255): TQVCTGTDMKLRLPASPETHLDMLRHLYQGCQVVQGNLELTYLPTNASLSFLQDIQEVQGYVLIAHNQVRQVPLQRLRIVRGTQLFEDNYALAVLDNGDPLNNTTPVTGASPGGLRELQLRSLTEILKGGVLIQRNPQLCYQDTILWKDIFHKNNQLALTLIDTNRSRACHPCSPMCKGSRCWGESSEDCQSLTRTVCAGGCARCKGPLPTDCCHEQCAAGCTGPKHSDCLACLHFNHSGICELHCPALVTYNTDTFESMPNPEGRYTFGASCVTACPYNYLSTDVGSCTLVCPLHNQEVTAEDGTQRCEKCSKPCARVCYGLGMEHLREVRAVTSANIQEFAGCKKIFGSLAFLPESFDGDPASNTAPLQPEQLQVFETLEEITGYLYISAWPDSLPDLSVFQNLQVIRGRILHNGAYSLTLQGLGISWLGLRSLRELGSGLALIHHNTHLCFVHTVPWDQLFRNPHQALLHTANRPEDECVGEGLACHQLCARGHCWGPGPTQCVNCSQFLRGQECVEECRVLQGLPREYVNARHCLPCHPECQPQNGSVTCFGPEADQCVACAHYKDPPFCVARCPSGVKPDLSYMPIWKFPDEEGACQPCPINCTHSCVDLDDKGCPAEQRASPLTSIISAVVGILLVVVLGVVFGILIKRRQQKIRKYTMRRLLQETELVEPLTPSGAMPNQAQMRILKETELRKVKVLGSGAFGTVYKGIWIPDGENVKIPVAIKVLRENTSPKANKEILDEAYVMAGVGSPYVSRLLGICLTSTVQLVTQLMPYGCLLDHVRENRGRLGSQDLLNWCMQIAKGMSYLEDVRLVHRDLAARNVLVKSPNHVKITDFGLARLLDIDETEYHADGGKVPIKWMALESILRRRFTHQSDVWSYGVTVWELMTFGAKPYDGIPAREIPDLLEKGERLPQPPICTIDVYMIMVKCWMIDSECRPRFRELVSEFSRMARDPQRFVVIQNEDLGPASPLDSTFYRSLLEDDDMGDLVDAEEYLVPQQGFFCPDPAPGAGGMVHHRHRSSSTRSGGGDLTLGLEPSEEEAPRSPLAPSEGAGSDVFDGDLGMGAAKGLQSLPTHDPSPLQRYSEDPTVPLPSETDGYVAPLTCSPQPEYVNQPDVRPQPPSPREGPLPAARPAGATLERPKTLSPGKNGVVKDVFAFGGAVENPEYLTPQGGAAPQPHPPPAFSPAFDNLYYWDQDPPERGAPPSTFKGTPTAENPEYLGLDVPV
Summary of the method: as §1

[22] = biological target: PIP5K1A (Homo sapiens, UniProt Q99755)
Chain of PIP5K1A (Q99755 whole entry): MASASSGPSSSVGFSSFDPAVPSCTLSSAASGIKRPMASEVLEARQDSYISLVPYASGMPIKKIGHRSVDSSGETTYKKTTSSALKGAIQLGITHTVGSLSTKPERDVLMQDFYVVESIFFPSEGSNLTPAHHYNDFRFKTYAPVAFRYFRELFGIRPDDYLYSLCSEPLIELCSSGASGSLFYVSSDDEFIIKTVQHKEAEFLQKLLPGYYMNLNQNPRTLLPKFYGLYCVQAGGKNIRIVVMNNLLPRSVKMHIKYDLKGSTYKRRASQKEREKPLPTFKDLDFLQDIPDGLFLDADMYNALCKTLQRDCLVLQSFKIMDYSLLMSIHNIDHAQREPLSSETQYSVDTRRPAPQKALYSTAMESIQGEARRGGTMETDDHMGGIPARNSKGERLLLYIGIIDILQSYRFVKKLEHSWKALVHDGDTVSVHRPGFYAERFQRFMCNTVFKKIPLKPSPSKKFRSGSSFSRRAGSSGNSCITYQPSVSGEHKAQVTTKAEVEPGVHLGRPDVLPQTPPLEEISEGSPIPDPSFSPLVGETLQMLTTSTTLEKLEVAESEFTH
Summary of the method: as §1

[23] = biological target: T15, ERK2 (Homo sapiens, UniProt P28482)
T15 construct: purchased Ambit Kinomescan (contract panel, KINOMEscan Max)
Summary of the method: as §1

[24] = biological target: T16, PRKCD (Homo sapiens, UniProt Q05655)
T16 construct: DNA tag (qPCR read-out)
Summary of the method: as §1

[25] = biological target: T17, DAPK1 (Homo sapiens, UniProt P53355)
T17 construct: DNA tag (qPCR read-out)
Summary of the method: as §1

[26] = biological target: T18, GAK (Homo sapiens, UniProt O14976)
T18 construct: purchased Ambit (KINOMEscan Max service)
Summary of the method: as §1

[27] = biological target: T19, PLK2 (Homo sapiens, UniProt Q9NYY3); details: 1 μM
T19 construct: DNA tag (qPCR read-out)
T19 sequence (Q9NYY3 whole entry): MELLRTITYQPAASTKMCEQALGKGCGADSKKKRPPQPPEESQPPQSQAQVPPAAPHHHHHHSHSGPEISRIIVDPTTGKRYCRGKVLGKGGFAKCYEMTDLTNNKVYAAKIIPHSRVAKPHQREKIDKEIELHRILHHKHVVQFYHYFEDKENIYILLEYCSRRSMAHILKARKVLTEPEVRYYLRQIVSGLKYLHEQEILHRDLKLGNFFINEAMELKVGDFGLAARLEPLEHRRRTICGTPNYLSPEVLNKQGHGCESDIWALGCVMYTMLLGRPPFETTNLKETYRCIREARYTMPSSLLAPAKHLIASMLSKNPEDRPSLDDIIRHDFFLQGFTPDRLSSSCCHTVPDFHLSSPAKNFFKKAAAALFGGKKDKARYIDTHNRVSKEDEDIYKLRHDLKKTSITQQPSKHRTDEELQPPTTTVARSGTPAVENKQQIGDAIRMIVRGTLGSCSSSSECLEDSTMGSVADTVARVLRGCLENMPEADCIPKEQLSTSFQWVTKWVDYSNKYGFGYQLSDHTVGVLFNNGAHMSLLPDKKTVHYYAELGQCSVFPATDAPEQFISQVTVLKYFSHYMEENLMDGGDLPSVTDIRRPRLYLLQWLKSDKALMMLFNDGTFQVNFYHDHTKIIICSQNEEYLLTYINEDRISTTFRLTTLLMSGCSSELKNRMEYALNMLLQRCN
Summary of the method: as §1

[28] = biological target: T20, EGFR(L747-T751del.Sins) (Homo sapiens, UniProt P00533, DEL747-750/T751S); details: 1 μM
T20 construct: purchased Ambit (KINOMEscan Max panel service)
Summary of the method: as §1

[29] = biological target: T21, EPHB4 (Homo sapiens, UniProt P54760)
T21 construct: purchased Ambit (KINOMEscan Max panel service)
Summary of the method: as §1

[30] = biological target: T22, ALK (Homo sapiens, UniProt Q9UM73)
T22 construct: DNA tag (qPCR label); purchased Ambit Kinomescan (contract screening)
Summary of the method: as §1

[31] = biological target: MEK6 (Homo sapiens, UniProt P52564)
Summary of the method: as §1

[32] = biological target: MAK (Homo sapiens, UniProt P20794)
Summary of the method: as §1

[33] = biological target: T23, KIT(V559D.T670I) (Homo sapiens, UniProt P10721, T670I/V559D)
T23 construct: purchased Ambit Kinomescan (contract panel)
Summary of the method: as §1

[34] = biological target: T24, KIT(L576P) (Homo sapiens, UniProt P10721, L576P)
T24 construct: purchased Ambit (KINOMEscan Max service)
Summary of the method: as §1

SMILES: NCCCNc1nc2c(Br)c(Br)c(Br)c(Br)c2[nH]1 [Compound 11, N-(3-aminopropyl)-4,5,6,7-tetrabromo-1H-benzo[d]imidazol-2-amine]
- remaining binding at 1 µM [1]: 100%
- remaining binding at 1 µM [2]: 41%
- remaining binding at 1 µM [3]: 100%
- remaining binding at 1 µM [4]: 100%
- remaining binding at 1 µM [5]: 55%
- remaining binding at 1 µM [6]: 100%
- remaining binding at 1 µM [7]: 100%
- remaining binding at 1 µM [8]: 79%
- remaining binding at 1 µM [9]: 96%
- % binding [10]: 100%
- remaining binding at 1 µM [11]: 67%
- remaining binding at 1 µM [12]: 94%
- % binding [13]: 100%
- remaining binding at 1 µM [14]: 95%
- remaining binding at 1 µM [15]: 58%
- remaining binding at 1 µM [16]: 100%
- remaining binding at 1 µM [17]: 73%
- remaining binding at 1 µM [18]: 1.5%
- remaining binding at 1 µM [19]: 53%
- remaining binding at 1 µM [20]: 72%
- remaining binding at 1 µM [21]: 100%
- remaining binding at 1 µM [22]: 75%
- remaining binding at 1 µM [23]: 100%
- remaining binding at 1 µM [24]: 56%
- remaining binding at 1 µM [25]: 90%
- remaining binding at 1 µM [26]: 81%
- % binding [27]: 31%
- % binding [28]: 100%
- remaining binding at 1 µM [29]: 100%
- remaining binding at 1 µM [30]: 100%
- remaining binding at 1 µM [31]: 100%
- remaining binding at 1 µM [32]: 79%
- remaining binding at 1 µM [33]: 100%
- remaining binding at 1 µM [34]: 83%
